Data taken from article PMC7044277 (Nature Communications, 2020).
Where “and” joins values, the source holds several entries; their conditions need not be identical. Identical values can stand only once.

Tests used:
Assay type in all cases: cell-based
320 non-olfactory GPCRs [1] = target: 320 non-olfactory GPCRs (Homo sapiens, UniProt O43193); conditions: receptor MLNR; replicate values, Fig_4g
320 non-olfactory GPCRs [2] = target: 320 non-olfactory GPCRs (Homo sapiens, UniProt P08172)
320 non-olfactory GPCRs [3] = target: T1, 320 non-olfactory GPCRs (Homo sapiens, UniProt Q9H244); conditions: receptor P2RY12; replicate values, Fig_4g
T1 construct: expressed in transfected cells; host or cells: HTLA cells
T1 sequence (Q9H244 whole entry): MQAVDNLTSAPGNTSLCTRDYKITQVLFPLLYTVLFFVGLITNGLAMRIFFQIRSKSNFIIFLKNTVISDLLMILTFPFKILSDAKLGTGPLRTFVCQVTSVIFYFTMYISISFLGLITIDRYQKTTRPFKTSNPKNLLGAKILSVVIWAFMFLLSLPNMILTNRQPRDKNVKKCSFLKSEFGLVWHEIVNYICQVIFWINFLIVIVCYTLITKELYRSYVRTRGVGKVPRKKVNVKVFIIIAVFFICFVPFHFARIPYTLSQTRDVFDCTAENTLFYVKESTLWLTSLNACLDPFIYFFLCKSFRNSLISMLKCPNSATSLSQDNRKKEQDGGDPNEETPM

320 non-olfactory GPCRs [4] = target: 320 non-olfactory GPCRs (Homo sapiens, UniProt P07550)
Chain of 320 non-olfactory GPCRs (Homo sapiens, UniProt P07550) (P07550 whole entry): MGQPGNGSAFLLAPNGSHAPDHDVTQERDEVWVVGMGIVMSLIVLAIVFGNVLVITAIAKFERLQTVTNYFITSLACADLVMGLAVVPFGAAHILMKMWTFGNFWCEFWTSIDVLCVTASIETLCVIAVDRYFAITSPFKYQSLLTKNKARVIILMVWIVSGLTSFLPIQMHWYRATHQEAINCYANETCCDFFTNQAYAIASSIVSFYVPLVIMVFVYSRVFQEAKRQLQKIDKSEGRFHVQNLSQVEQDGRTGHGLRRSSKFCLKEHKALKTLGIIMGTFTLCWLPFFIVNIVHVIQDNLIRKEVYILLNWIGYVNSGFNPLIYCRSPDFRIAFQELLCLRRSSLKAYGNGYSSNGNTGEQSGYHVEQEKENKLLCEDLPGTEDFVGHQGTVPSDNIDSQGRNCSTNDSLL
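Wherever Fold of Basal is given: compound tested at 1 µM final concentration.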
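Wherever GPCRome agonism screen response is given: fold over basal response of each receptor without drug.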

Chain of 320 non-olfactory GPCRs (Homo sapiens, UniProt O43193) (O43193 whole entry): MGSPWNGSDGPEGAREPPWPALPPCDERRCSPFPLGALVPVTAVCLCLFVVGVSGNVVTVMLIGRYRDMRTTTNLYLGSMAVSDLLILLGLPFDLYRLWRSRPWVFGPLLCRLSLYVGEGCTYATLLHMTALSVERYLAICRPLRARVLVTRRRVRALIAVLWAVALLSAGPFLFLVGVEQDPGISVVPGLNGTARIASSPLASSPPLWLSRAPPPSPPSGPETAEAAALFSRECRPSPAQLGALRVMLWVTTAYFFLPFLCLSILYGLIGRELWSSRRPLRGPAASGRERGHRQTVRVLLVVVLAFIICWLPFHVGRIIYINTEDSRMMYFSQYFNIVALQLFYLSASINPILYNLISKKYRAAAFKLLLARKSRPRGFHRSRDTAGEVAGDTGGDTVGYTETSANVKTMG
Chain of 320 non-olfactory GPCRs (Homo sapiens, UniProt P08172) (P08172 whole entry): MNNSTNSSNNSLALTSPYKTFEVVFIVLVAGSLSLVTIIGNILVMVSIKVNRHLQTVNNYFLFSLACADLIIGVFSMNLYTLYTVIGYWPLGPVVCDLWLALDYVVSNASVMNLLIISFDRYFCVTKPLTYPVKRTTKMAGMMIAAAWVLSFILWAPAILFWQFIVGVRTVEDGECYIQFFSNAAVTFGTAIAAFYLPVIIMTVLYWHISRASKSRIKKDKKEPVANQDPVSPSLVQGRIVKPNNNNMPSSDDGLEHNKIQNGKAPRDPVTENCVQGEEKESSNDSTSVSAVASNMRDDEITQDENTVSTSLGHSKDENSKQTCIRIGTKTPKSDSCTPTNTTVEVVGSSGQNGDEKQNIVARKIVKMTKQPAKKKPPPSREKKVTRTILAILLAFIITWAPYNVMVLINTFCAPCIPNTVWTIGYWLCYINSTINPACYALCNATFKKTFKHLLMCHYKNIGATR

CCOc1cccc2cc(C(C)NCC3(O)CCCCC3)oc12 (stereo not shown) [O4LE6]
GPCRome agonism screen response (320 non-olfactory GPCRs [1]): 1.48 and 1.279 and 0.7077 and 1.039 | Fold of Basal (320 non-olfactory GPCRs [2]): 1.524 and 1.414 and 0.8585 and 0.8596 | GPCRome agonism screen response (320 non-olfactory GPCRs [3]): 1.331 and 0.8524 and 1.417 and 1.455 | Fold of Basal (320 non-olfactory GPCRs [4]): 0.7944 and 1.208 and 1.018 and 0.6397
